Data from PubChem BioAssay (NCI).
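Results reflect a 48-hour exposure of cells in 96-well plates to compound at five concentrations. GI50: concentration for 50% inhibition of growth. The concentration for full growth arrest is given as TGI.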

Assays:
Experiment in all cases: NCI anticancer screen, dose series, 48 h
[1] = system: OVCAR-3 ovarian
[2] = system: ACHN renal
[3] = system: NCI-H23 lung
[4] = system: SN12C renal
[5] = system: COLO 205 colon
[6] = system: DU-145 prostate
[7] = system: HOP-62 NSCLC
[8] = system: NCI/ADR-RES ovarian
[9] = system: HCC-2998 colon
[10] = system: RPMI-8226 leukemia
[11] = system: A549 NSCLC
[12] = system: MALME-3M melanoma
[13] = system: CAKI-1 renal
[14] = system: SK-MEL-2 melanoma
[15] = system: SW-620 colon
[16] = system: PC-3 prostate
[17] = system: SNB-75 CNS
[18] = system: HL-60(TB) leukemia
[19] = system: HCT-15 colon
[20] = system: TK-10 renal
[21] = system: IGROV1 ovarian
[22] = system: UACC-62 melanoma
[23] = system: MOLT-4 leukemia
[24] = system: CCRF-CEM leukemia
[25] = system: MDA-MB-231 breast
[26] = system: RXF 393 renal
[27] = system: A498 renal
[28] = system: SR leukemia
[29] = system: OVCAR-5 ovarian
[30] = system: SF-295 CNS
[31] = system: UO-31 renal
[32] = system: MDA-MB-435
[33] = system: SF-268 CNS
[34] = system: T-47D breast
[35] = system: NCI-H460 lung
[36] = system: BT-549 breast
[37] = system: KM12 colon
[38] = system: SF-539 CNS
[39] = system: SNB-19 CNS
[40] = system: SK-MEL-5 melanoma
[41] = system: 786-0 renal
[42] = system: K-562 leukemia
[43] = system: NCI-H522 lung
[44] = system: UACC-257 melanoma
[45] = system: OVCAR-8 ovarian
[46] = system: SK-MEL-28 melanoma
[47] = system: NCI-H226 lung
[48] = system: HT29 colon
[49] = system: M14 melanoma
[50] = system: U251 CNS
[51] = system: HS 578T breast
[52] = system: SK-OV-3 ovarian
[53] = system: HCT-116 colon
[54] = system: LOX IMVI melanoma
[55] = system: MCF7 breast
[56] = system: HOP-92 NSCLC
[57] = system: EKVX NSCLC

Structure (SMILES): Cc1cc(C)cc(NC2=C(Cl)C(=O)c3nc(C)ccc3C2=O)c1
- GI50 [1]: 405 nM
- TGI [1]: 1470 nM
- GI50 [2]: 1780 nM
- TGI [2]: 3400 nM
- GI50 [3]: 1700 nM
- TGI [3]: 4590 nM
- GI50 [4]: 2000 nM
- TGI [4]: 5790 nM
- GI50 [5]: 2230 nM
- TGI [5]: 5010 nM
- GI50 [6]: 1850 nM
- TGI [6]: 3550 nM
- GI50 [7]: 4660 nM
- TGI [7]: 19700 nM
- GI50 [8]: 2060 nM
- TGI [8]: 6790 nM
- GI50 [9]: 3180 nM
- TGI [9]: 10500 nM
- GI50 [10]: 1630 nM
- TGI [10]: 4400 nM
- GI50 [11]: 4370 nM
- TGI [11]: 19100 nM
- GI50 [12]: 2300 nM
- TGI [12]: 4420 nM
- GI50 [13]: 1590 nM
- TGI [13]: 3180 nM
- GI50 [14]: 2880 nM
- TGI [14]: 9570 nM
- GI50 [15]: 2070 nM
- TGI [15]: 4650 nM
- GI50 [16]: 1730 nM
- TGI [16]: 10200 nM
- GI50 [17]: 2150 nM
- TGI [17]: 6480 nM
- GI50 [18]: 1550 nM
- TGI [18]: 3850 nM
- GI50 [19]: 1090 nM
- TGI [19]: 2640 nM
- GI50 [20]: 2210 nM
- TGI [20]: 3730 nM
- GI50 [21]: 1810 nM
- TGI [21]: 3950 nM
- GI50 [22]: 2630 nM
- TGI [22]: 7420 nM
- GI50 [23]: 1600 nM
- TGI [23]: 5610 nM
- GI50 [24]: 2090 nM
- TGI [24]: 5780 nM
- GI50 [25]: 1680 nM
- TGI [25]: 4130 nM
- GI50 [26]: 1410 nM
- TGI [26]: 2740 nM
- GI50 [27]: 14300 nM
- TGI [27]: 28100 nM
- GI50 [28]: 1220 nM
- TGI [28]: 3960 nM
- GI50 [29]: 1780 nM
- TGI [29]: 3690 nM
- GI50 [30]: 4580 nM
- TGI [30]: 16300 nM
- GI50 [31]: 1430 nM
- TGI [31]: 2870 nM
- GI50 [32]: 1960 nM
- TGI [32]: 3860 nM
- GI50 [33]: 3740 nM
- TGI [33]: 20700 nM
- GI50 [34]: 1550 nM
- TGI [34]: 4260 nM
- GI50 [35]: 4200 nM
- TGI [35]: 20100 nM
- GI50 [36]: 1410 nM
- TGI [36]: 2830 nM
- GI50 [37]: 5600 nM
- TGI [37]: 20700 nM
- GI50 [38]: 1760 nM
- TGI [38]: 3250 nM
- GI50 [39]: 3410 nM
- TGI [39]: 24400 nM
- GI50 [40]: 1650 nM
- TGI [40]: 3080 nM
- GI50 [41]: 1700 nM
- TGI [41]: 3420 nM
- GI50 [42]: 712 nM
- TGI [42]: 4810 nM
- GI50 [43]: 2050 nM
- TGI [43]: 5290 nM
- GI50 [44]: 1640 nM
- TGI [44]: 3120 nM
- GI50 [45]: 2140 nM
- TGI [45]: 5920 nM
- GI50 [46]: 1990 nM
- TGI [46]: 3940 nM
- GI50 [47]: 1800 nM
- TGI [47]: 4580 nM
- GI50 [48]: 3660 nM
- TGI [48]: 19200 nM
- GI50 [49]: 1630 nM
- TGI [49]: 3070 nM
- GI50 [50]: 2350 nM
- TGI [50]: 8090 nM
- GI50 [51]: 2240 nM
- TGI [51]: 5810 nM
- GI50 [52]: 14300 nM
- TGI [52]: 27700 nM

Structure (SMILES): CN1CCN(Cc2ccc(NC(=O)c3cncc(C#Cc4cnc5ccc(N6CCSCC6)nn45)c3)cc2C(F)(F)F)CC1
- GI50 [1]: 322 nM
- TGI [1]: 1290 nM
- GI50 [2]: 224 nM
- TGI [2]: 1200 nM
- GI50 [3]: 156 nM
- TGI [3]: 595 nM
- GI50 [4]: 112 nM
- TGI [4]: 702 nM
- GI50 [5]: 153 nM
- TGI [5]: 429 nM
- GI50 [6]: 202 nM
- TGI [6]: 600 nM
- GI50 [7]: 338 nM
- TGI [7]: 1450 nM
- GI50 [9]: 245 nM
- TGI [9]: 878 nM
- GI50 [10]: 333 nM
- TGI [10]: 2070 nM
- GI50 [11]: 272 nM
- TGI [11]: 1580 nM
- GI50 [12]: 202 nM
- TGI [12]: 1070 nM
- GI50 [13]: 221 nM
- TGI [13]: 787 nM
- GI50 [14]: 260 nM
- TGI [14]: 745 nM
- GI50 [15]: 153 nM
- TGI [15]: 1090 nM
- GI50 [16]: 327 nM
- TGI [16]: 1990 nM
- GI50 [17]: 256 nM
- TGI [17]: 832 nM
- GI50 [18]: 78.2 nM
- TGI [18]: 520 nM
- GI50 [19]: 172 nM
- TGI [19]: 564 nM
- GI50 [20]: 319 nM
- TGI [20]: 1080 nM
- GI50 [21]: 168 nM
- TGI [21]: 806 nM
- GI50 [22]: 468 nM
- TGI [22]: 1930 nM
- GI50 [23]: 198 nM
- TGI [23]: 666 nM
- GI50 [24]: 303 nM
- GI50 [25]: 74.2 nM
- TGI [25]: 572 nM
- GI50 [26]: 141 nM
- TGI [26]: 295 nM
- GI50 [53]: 112 nM
- TGI [53]: 1160 nM
- GI50 [54]: 152 nM
- TGI [54]: 535 nM
- GI50 [27]: 307 nM
- TGI [27]: 537 nM
- GI50 [28]: 208 nM
- TGI [28]: 712 nM
- GI50 [29]: 282 nM
- TGI [29]: 1320 nM
- GI50 [30]: 310 nM
- TGI [30]: 1600 nM
- GI50 [31]: 280 nM
- TGI [31]: 855 nM
- GI50 [32]: 197 nM
- TGI [32]: 1480 nM
- GI50 [34]: 1400 nM
- TGI [34]: 3890 nM
- GI50 [35]: 208 nM
- TGI [35]: 532 nM
- GI50 [36]: 354 nM
- TGI [36]: 1240 nM
- TGI [37]: 340 nM
- GI50 [55]: 45.9 nM
- TGI [55]: 598 nM
- GI50 [38]: 93.6 nM
- TGI [38]: 275 nM
- GI50 [39]: 446 nM
- TGI [39]: 1350 nM
- GI50 [40]: 786 nM
- TGI [40]: 2080 nM
- GI50 [56]: 41.8 nM
- TGI [56]: 240 nM
- GI50 [41]: 189 nM
- TGI [41]: 762 nM
- TGI [42]: 753 nM
- GI50 [43]: 132 nM
- TGI [43]: 340 nM
- GI50 [44]: 599 nM
- TGI [44]: 2340 nM
- GI50 [57]: 100 nM
- TGI [57]: 877 nM
- GI50 [46]: 498 nM
- TGI [46]: 1850 nM
- GI50 [47]: 51.8 nM
- TGI [47]: 780 nM
- GI50 [48]: 74.4 nM
- TGI [48]: 554 nM
- GI50 [49]: 156 nM
- TGI [49]: 760 nM
- GI50 [52]: 656 nM
- TGI [52]: 2060 nM
